Series [1] has as its target T1, human GIP receptor (hGIPR) (Homo sapiens, UniProt P48546).
T1 sequence (P48546 22-466): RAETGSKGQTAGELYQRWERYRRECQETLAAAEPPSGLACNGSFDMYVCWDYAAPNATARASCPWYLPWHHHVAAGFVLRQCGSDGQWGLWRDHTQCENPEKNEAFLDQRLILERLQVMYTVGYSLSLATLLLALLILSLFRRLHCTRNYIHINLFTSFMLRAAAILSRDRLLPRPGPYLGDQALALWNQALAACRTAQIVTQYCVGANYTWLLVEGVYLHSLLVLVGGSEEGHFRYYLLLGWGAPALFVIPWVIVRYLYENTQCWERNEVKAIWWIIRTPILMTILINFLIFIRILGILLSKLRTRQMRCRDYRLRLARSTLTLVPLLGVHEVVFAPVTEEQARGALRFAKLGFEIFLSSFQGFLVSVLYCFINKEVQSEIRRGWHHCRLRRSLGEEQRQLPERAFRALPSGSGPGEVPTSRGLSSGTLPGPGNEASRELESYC
Briefly: Binding assay, displacement of [125I]GIP from HEK-293 membranes expressing GIPR. The settings on record: [125I]GIP displacement. The procedure:
HEK-293 cells recombinantly over-expressing GIPR or GLP-1R were grown to 50% confluency, washed with warm 1×PBS (Gibco) and detached in HEPES/EDTA-buffer (100 mM HEPES pH 7.5, 5 mM EDTA). Cells were harvested by centrifugation at 4° C. and 3000×g and the pellets were stored at −80° C. until further processing.
After thawing on ice, pellets were resuspended in HEPES/EDTA-buffer and homogenized on ice for 1 min using Ultra-Turray T25. After subsequent sonification the cell debris was removed by centrifugation at 1000×g and 4° C. Supernatants were then ultra-centrifuged at 100000×g and 4° C. under vacuum for 30 min. Pellets were resuspended in HEPES/EDTA/NaCl-buffer (20 mM HEPES, 1 mM EDTA, 150 mM NaCl; add 1 Complete Mini Protease inhibitor cocktail to 10 ml buffer) and protein content was determined via BCA-Protein assay.
On the technique in general: In a radioligand displacement assay an active substance lowers the binding of a labelled ligand.

The target of another series is T2, human GIP receptor (Homo sapiens, UniProt P48546).
T2 construct: human adipocytes endogenously expressing the human GIP receptor; host or cells: human preadipocytes (Lonza) differentiated to adipocytes
T2 sequence (P48546 22-466): T1 sequence (P48546 22-466)
Kind of series: cAMP HTRF assay in human adipocytes endogenously expressing the human GIP receptor. The class given is cell-based. The settings on record: for Emax: read-out: hGIPR Emax. As to the method:
For this, one vial of human preadipocytes (˜10^6 cells; Lonza) was thawed in a T-75 cell culture dish.
After 3 days, the cells were washed with PBS and 1.5 ml Trypsin, incubated for 4 min, then resuspended in medium, centrifugated for 10 min @ 300 rcf RT, resuspended again and distributed to four T-75 cell culture dishes.
After 5 days, the cells were washed with PBS and 1.5 ml Trypsin, incubated for 4 min, then resuspended in medium, centrifugated for 10 min @ 300 rcf RT, resuspended again and sawn in T-75 dishes (2.5×10^6 cells per dish) in 15 ml Differentiation medium each.
After 6 days of differentiation, 5000 cells per well were dispensed on a 96-well plate (#CLS3694 from Corning®, Sigma-Aldrich). For measurement of cAMP generation, 25 μL of test compound was added to each well of the 96-well plate, followed by incubation for 30 min at room temperature.
The cAMP generated following test compound stimulation was determined using a kit from Cisbio Corp. based on HTRF (Homogenous Time Resolved Fluorescence). The cAMP assay was performed according to manufacturer's instructions (Cisbio).
The cAMP content of cells was determined using a kit from Cisbio Corp. based on HTRF (Homogenous Time Resolved Fluorescence).
(In general: TR-FRET usually uses a lanthanide donor and a delayed reading to cut background.)

The next series is described as follows: physchem. The settings on record: for Soluble amount: 24 h, pH 7.4; for solubility at 24 h: pH 7.4, Soluble amount. In kind it is physicochemical. As to the method: Prior to the solubility measurement of a peptide batch, its purity was determined through UHPLC/MS. […] Therefore, solutions from solid samples were prepared in a buffer system with a concentration of 10 mg/ml compound based on the previously determined % purity: Solubility buffer system A) 100 mM phosphate buffer pH 7.4 […] Solubility buffer system C) 100 mM phosphate buffer pH 7.4, 2.7 mg/ml m-cresol UHPLC-UV was performed after 1 h of gentle agitation and storage at 5° C. over night (24 h) from the supernatant, which was obtained after 15 min of centrifugation at 2500 RCF (relative centrifugal acceleration). […] The different UV extinction coefficients of sample and reference peptide were calculated based on the different amino acid sequences and considered in the concentration calculation. The analytical method used was Analytical UHPLC Method A. Peptide samples were prepared in solubility buffer system A or C and solubility was assessed as described in Methods.

A short description of series [2]: ThT assay for the assessment of physical stability. In kind it is physicochemical. The settings on record: ThT buffer system A: 100 mM phosphate buffer pH 7.4; 3 mg/ml, 37° C. From the text:
Low physical stability of a peptide solution may lead to amyloid fibril formation, which is observed as well-ordered, thread-like macromolecular structures in the sample, which eventually may lead to gel formation. Thioflavin T (ThT) is widely used to visualize and quantify the presence of misfolded protein aggregates [Biancalana et al., Biochim. Biophys. Acta 2010, 1804(7), 1405]. […] Enzymol. 1999, 309, 274]. The time course for fibril formation often follows the characteristic shape of a sigmoidal curve and can be separated into three regions: a lag phase, a fast growth phase, and a plateau phase.
The typical fibril formation process starts with the lag phase in which the amount of partially folded peptide turned into fibrils is not significant enough to be detected. The lag-time corresponds to the time the critical mass of the nucleus is built. Afterwards, a drastic elongation phase follows, and fibril concentration increases rapidly.
Investigations were carried out to determine fibrillation tendencies under stress conditions by shaking at 37° C. within Fluoroskan Ascent FL or Fluoroskan Ascent.
For the tests in Fluoroskan Ascent (FL), 200 μl sample were placed into a 96-well mictrotiter plate PS, flat bottom, Greiner Fluotrac No. 655076. Plates were sealed with Scotch Tape (Qiagen). Samples were stressed by continuous cycles of 10 sec shaking at 960 rpm and 50 sec rest period at 37° C. The kinetic was monitored by measuring fluorescence intensity every 20 min.
Peptides were diluted in a buffer system to a final concentration of 3 mg/ml. 20 μl of a 10.1 mM ThT solution in H2O were added to 2 ml of peptide solution to receive a final concentration of 100 μM ThT. For each sample eight replicates were tested.
ThT buffer system A) 100 mM phosphate buffer pH 7.4
ThT buffer system B) 100 mM phosphate buffer pH 7.4, 2.7 mg/ml m-cresol
Lag time in hours (h) in Thioflavin T (ThT) assay of peptide samples was determined in ThT buffer system A as described in Methods.

*1 amine or outer side, *2 acyl side, *3 side chain or, on linkers, in order; H or OH if unused. Where a SMILES comes first, the peptide text is derived from it. Side-chain parts run from the residue outwards. [ ]: non-standard residue; d: D form. The star is where a group is joined. C20 diacid = O=C(O)CCCCCCCCCCCCCCCCCCC(=O)*; C18 diacid = O=C(O)CCCCCCCCCCCCCCCCC(=O)*; γGlu = O=C(O)[C@H](CCC(=O)[*:2])N[*:1]; AEEA = NCCOCCOCC(=O)O; Aib = CC(C)(N)C(=O)O Some results are limits rather than exact numbers.

In general, IC50 refers to the midpoint of a concentration-inhibition curve. Read a high IC50 as weaker potency. As usually defined, the EC50 is the concentration giving half of the maximal effect. Usually Emax stands for the size of the effect at its maximum, as opposed to the concentration needed. The solubility is how much of the substance goes into solution per volume. `CC[C@H](C)[C@H](NC(=O)[C@H](CCCNC(=N)N)NC(=O)[C@H](CC(=O)O)NC(=O)[C@H](CCCCNC(=O)COCCOCCNC(=O)COCCOCCNC(=O)CC[C@H](NC(=O)CCCCCCCCCCCCCCCCCCC(=O)O)C(=O)O)NC(=O)C(C)(C)NC(=O)[C@@H](NC(=O)[C@H](CO)NC(=O)[C@H](CC(C)C)NC(=O)[C@H](CC(=O)O)NC(=O)[C@H](CO)NC(=O)[C@@H](NC(=O)[C@H](Cc1ccccc1)NC(=O)[C@@H](NC(=O)CNC(=O)[C@H](CCC(=O)O)NC(=O)C(C)(C)NC(=O)[C@@H](N)Cc1ccc(O)cc1)[C@@H](C)O)[C@@H](C)CC)[C@@H](C)CC)C(=O)N[C@@H](Cc1c[nH]cn1)C(=O)N[C@@H](CCC(N)=O)C(=O)NC(C)(C)C(=O)N[C@@H](CCC(=O)O)C(=O)N[C@@H](Cc1ccccc1)C(=O)N[C@H](C(=O)N[C@@H](CCC(=O)O)C(=O)N[C@@H](Cc1c[nH]c2ccccc12)C(=O)N[C@@H](CC(C)C)C(=O)N[C@@H](CC(C)C)C(=O)N[C@@H](C)C(=O)N[C@@H](CCC(N)=O)C(=O)NCC(=O)N1CCC[C@H]1C(=O)N[C@@H](CO)C(=O)N[C@@H](CO)C(=O)NCC(=O)N[C@@H](C)C(=O)N1CCC[C@H]1C(=O)N1CCC[C@H]1C(=O)N1CCC[C@H]1C(=O)N[C@@H](CO)C(N)=O)[C@@H](C)CC` [SEQ ID NO: 7, H2N-Y-Aib-E-G-T-F-I-S-D-I-S-I-Aib-K[{AEEA}2-gGlu-C20OH]-D-R-I-H-Q-Aib-E-F-I-E-W-I-L-A-Q-G-P-S-S-G-A-P-P-P-S-NH2] (H-Y[Aib]EGTFISDLSI[Aib]K([AEEA-AEEA-γGlu-C20 diacid])DRIHQ[Aib]EFIEWLLAQGPSSGAPPPS-NH2) registered an IC50 in series [1] of 0.2 nM. Further, at human GIP receptor (read-out: hGIPR EC50), the EC50 amounted to 0.3 nM. Also, the Emax at human GIP receptor came out at 121%. Also, in “physchem”, the Soluble amount was greater than 5.9 mg/mL and the solubility at 24 h is greater than 6900 µg/mL.
Turning to `CC[C@H](C)[C@H](NC(=O)[C@H](Cc1ccccc1)NC(=O)[C@H](CCC(=O)O)NC(=O)[C@H](CCC(=O)O)NC(=O)[C@H](CCC(N)=O)NC(=O)[C@H](Cc1c[nH]cn1)NC(=O)[C@@H](NC(=O)[C@H](CCCNC(=N)N)NC(=O)[C@H](CC(=O)O)NC(=O)[C@H](CCCCNC(=O)COCCOCCNC(=O)COCCOCCNC(=O)CC[C@H](NC(=O)CCCCCCCCCCCCCCCCC(=O)O)C(=O)O)NC(=O)C(C)(C)NC(=O)[C@@H](NC(=O)[C@H](CO)NC(=O)[C@H](CC(C)C)NC(=O)[C@H](CC(=O)O)NC(=O)[C@H](CO)NC(=O)[C@@H](NC(=O)[C@H](Cc1ccccc1)NC(=O)[C@@H](NC(=O)CNC(=O)[C@H](CCC(=O)O)NC(=O)C(C)(C)NC(=O)[C@@H](N)Cc1ccc(O)cc1)[C@@H](C)O)[C@@H](C)CC)[C@@H](C)CC)[C@@H](C)CC)C(=O)N[C@@H](CCC(=O)O)C(=O)N[C@@H](Cc1c[nH]c2ccccc12)C(=O)N[C@@H](CC(C)C)C(=O)N[C@@H](CC(C)C)C(=O)N[C@@H](C)C(=O)N[C@@H](CCC(N)=O)C(=O)NCC(=O)N1CCC[C@H]1C(=O)N[C@@H](CO)C(=O)N[C@@H](CO)C(=O)NCC(=O)N[C@@H](C)C(=O)N1CCC[C@H]1C(=O)N1CCC[C@H]1C(=O)N1CCC[C@H]1C(=O)N[C@@H](CO)C(N)=O` [SEQ ID NO: 9, H2N-Y-Aib-E-G-T-F-I-S-D-I-S-I-Aib-K[{AEEA}2-gGlu-C18OH]-DRIHQEEFIEWILAQGPSSGAPPPS-NH2] (H-Y[Aib]EGTFISDLSI[Aib]K([AEEA-AEEA-γGlu-C18 diacid])DRIHQEEFIEWLLAQGPSSGAPPPS-NH2), the Emax on human GIP receptor stood at 125%. Moreover, in series [2], the “Increase in FI” value is given as “no” and the “Lag time before increase” value is greater than 45 h.
For the molecule `CC[C@H](C)[C@H](NC(=O)[C@H](Cc1ccccc1)NC(=O)[C@H](CCC(=O)O)NC(=O)[C@H](CCC(=O)O)NC(=O)[C@H](CCC(N)=O)NC(=O)[C@H](Cc1c[nH]cn1)NC(=O)[C@@H](NC(=O)[C@H](CCCNC(=N)N)NC(=O)[C@H](CC(=O)O)NC(=O)[C@H](CCCCNC(=O)COCCOCCNC(=O)COCCOCCNC(=O)CC[C@H](NC(=O)CCCCCCCCCCCCCCCCCCC(=O)O)C(=O)O)NC(=O)C(C)(C)NC(=O)[C@@H](NC(=O)[C@H](CO)NC(=O)[C@H](CC(C)C)NC(=O)[C@H](CC(=O)O)NC(=O)[C@H](CO)NC(=O)[C@@H](NC(=O)[C@H](Cc1ccccc1)NC(=O)[C@@H](NC(=O)CNC(=O)[C@H](CCC(=O)O)NC(=O)C(C)(C)NC(=O)[C@@H](N)Cc1ccc(O)cc1)[C@@H](C)O)[C@@H](C)CC)[C@@H](C)CC)[C@@H](C)CC)C(=O)N[C@@H](CCC(=O)O)C(=O)N[C@@H](Cc1c[nH]c2ccccc12)C(=O)N[C@@H](CC(C)C)C(=O)N[C@@H](CC(C)C)C(=O)N[C@@H](C)C(=O)N[C@@H](CCC(N)=O)C(=O)NCC(=O)N1CCC[C@H]1C(=O)N[C@@H](CO)C(=O)N[C@@H](CO)C(=O)NCC(=O)N[C@@H](C)C(=O)N1CCC[C@H]1C(=O)N1CCC[C@H]1C(=O)N1CCC[C@H]1C(=O)N[C@@H](CO)C(N)=O` [SEQ ID NO: 10, H2N-Y-Aib-E-G-T-F-I-S-D-I-S-I-Aib-K[{AEEA}2-gGlu-C20OH]-DRIHQEEFIEWILAQGPSSGAPPPS-NH2] (H-Y[Aib]EGTFISDLSI[Aib]K([AEEA-AEEA-γGlu-C20 diacid])DRIHQEEFIEWLLAQGPSSGAPPPS-NH2), the IC50 in series [1] was determined as 0.3 nM. Moreover, the Emax on human GIP receptor came out at 127%. Also, in the series “physchem”, the Soluble amount was greater than 8.1 mg/mL and the solubility at 24 h was greater than 8000 µg/mL.

Values taken from patent US20230103631A1, “PEPTIDES AS SELECTIVE GIP RECEPTOR AGONISTS” (Sanofi, priority 2020, published 2023).
